The source made the active and inactive calls. How the calls were made is not given here. Residues, ends and D or L forms follow the SMILES beside them. *: point of attachment. Cbz = O=C(OCc1ccccc1)*
Assay: Cytotoxicity activity against human HepG2 cells assessed by CellTiter-Glo luminescent cell viability assay.
Format: toxicity, cell-based
Design: assay stage confirmatory assay, source tissue liver
Details: HepG2 cells, read-out: IC50 relative

Which CC50 does the source give for `COc1cccc(Cn2c(=O)c3ccnn3c3ccc(C(=O)NCCN(C)C)cc32)c1` here?
Its CC50 is 12.3 µM (active).

For `COC1(C(=O)N2CCO[C@H](c3ccccc3C)C2)CS(=O)(=O)C1`, which CC50 is on record?
The CC50 was 8.6 µM (active).

Which CC50 does the source give for `C[C@]12CCC(=O)C=C1CC[C@@H]1[C@@H]2CC[C@]2(C)C(c3cccnc3)=CC[C@@H]12` here?
The CC50 was 28 µM (inactive).

Which CC50 does the source give for `Cc1cn2c(=O)c(S(=O)(=O)NCC3CCN(Cc4ccc(Cl)cc4)CC3)c(C)nc2s1` here?
The CC50 was 11.9 µM (active).

With `CC1=NNc2nc3c(c(=O)n(Cc4ccccc4Cl)c(=O)n3C)n2[C@H]1C` as the compound, how does the CC50 read?
The CC50 was 21.1 µM (inactive).

For `CS(=O)(=O)N1CCc2ccc(NC(=O)Nc3ccc(F)cc3F)cc21`, which CC50 is on record?
The CC50 was 24.5 µM (inactive).

For `CCOc1ccccc1-n1c(C(C)N2CCN(C(=O)COc3ccc(Cl)cc3)CC2)nc2ccccc2c1=O` (centres undefined) [ERASTIN], which CC50 is on record?
The CC50 was 1.8 µM (active).

With `CC1(C)CCC2=C(O1)c1ccccc1C(=O)C2=O` [LAPACHONE] as the compound, how does the CC50 read?
Its CC50 is 2.3 µM (active).

For `C=CC(=O)Nc1cc2c(Nc3ccc(F)c(Cl)c3)ncnc2cc1OCCCN1CCOCC1` [CANERTINIB], which CC50 is on record?
Its CC50 is 50 µM (inactive).

Which CC50 does the source give for `CC(C)NC(=O)[C@H]1CC[C@@H](n2/c(=N/C(=O)c3ccc(F)cc3)[nH]c3ccc(CN4CCC(C(C)(C)O)CC4)cc32)CC1` here?
The CC50 was 0.8 µM (active).

For `Cc1cccc2nc(C(=O)Nc3ccc4c(c3)OC3(CCCC3)O4)cn12`, which CC50 is on record?
The CC50 was 11.9 µM (active).

With `O=C(NCCCN1CCC2(CC1)OCc1ccccc12)[C@H]1CCCN1Cc1ccccc1` as the compound, how does the CC50 read?
The CC50 was 10.7 µM (active).

Which CC50 does the source give for `Cc1cccc(-c2[nH]c(C(C)(C)C)nc2-c2ccc3c(c2)OCO3)n1` here?
Its CC50 is 2.8 µM (active).

With `CCc1ccc(NC(=O)c2nc(S(C)(=O)=O)ncc2Br)cc1` as the compound, how does the CC50 read?
The CC50 was 3 µM (active).

Which CC50 does the source give for `FC(F)c1nc2ccccc2n1-c1nc(N2CCOCC2)nc(N2CCOCC2)n1` [ZSTK-474] here?
Its CC50 is 1.2 µM (active).

With `CCOC(=O)[C@H](Cc1ccc([N+](=O)[O-])cc1)NC(=O)c1ccccc1` as the compound, how does the CC50 read?
The CC50 was 15.4 µM (active).

With `COC1=C2C[C@@H](C)C[C@H](OC)[C@H](O)[C@@H](C)/C=C(/C)[C@H](OC(N)=O)[C@@H](OC)/C=C\C=C(\C)C(=O)NC(=CC1=O)C2=O` as the compound, how does the CC50 read?
Its CC50 is < 0.1 µM (active).

For `CC(=O)NC(c1ccccc1)c1cc(Cl)c2cccnc2c1O` (centres undefined), which CC50 is on record?
Its CC50 is 1.4 µM (active).

With `COc1cc(Nc2c(C#N)cnc3cc(OCCCN4CCN(C)CC4)c(OC)cc23)c(Cl)cc1Cl` [BOSUTINIB] as the compound, how does the CC50 read?
The CC50 was 1.8 µM (active).

For `CC(C)C[C@@H](C=O)NC(=O)[C@H](CC(C)C)NC(=O)[C@H](CC(C)C)NC(=O)OCc1ccccc1` [MG-132] (Cbz-Leu-Leu-Leu-aldehyde), which CC50 is on record?
The CC50 was 0.5 µM (active).

With `COc1ccc([C@@H]2CCCN2c2cnn(C(C)(C)C)c(=O)c2Cl)cc1` as the compound, how does the CC50 read?
The CC50 was 11.1 µM (active).

Which CC50 does the source give for `CC(C)(C)c1cc(NC(=O)Nc2ccc(Oc3ccnc4[nH]c(=O)cnc34)cc2F)n(-c2ccccc2)n1` here?
Its CC50 is 0.4 µM (active).

With `O=C(Nc1nc2cc(C(F)(F)F)ccc2[nH]1)C1=COCCO1` as the compound, how does the CC50 read?
Its CC50 is 7.1 µM (active).

For `CC(C)CCn1c(SCC(=O)NCCN(C(C)C)C(C)C)nc2ccccc2c1=O`, which CC50 is on record?
Its CC50 is 12.5 µM (active).

For `CCOc1cc(N2CCC(O)CC2)ccc1Nc1ncc2c(n1)N(C1CCCC1)CCC(=O)N2C`, which CC50 is on record?
Its CC50 is 4.3 µM (active).

With `Cn1nccc1Nc1nccc(-c2ccn([C@H](CO)c3ccc(Cl)c(F)c3)c(=O)c2)n1` [RAVOXERTINIB] as the compound, how does the CC50 read?
The CC50 was 0.7 µM (active).

For `c1cc(N2CCC[C@H]2C2CCCCC2)nc(C2CC2)n1`, which CC50 is on record?
Its CC50 is 11.8 µM (active).

For `COc1ccc(OC)c(C(=O)Nc2nc3ccccc3[nH]2)c1`, which CC50 is on record?
Its CC50 is 4.7 µM (active).

For `CCCS(=O)(=O)N1CCc2ccc(NC(=O)Nc3ccc(OCC)cc3)cc21`, which CC50 is on record?
The CC50 was 50 µM (inactive).

Which CC50 does the source give for `COc1ccsc1C(=O)Nc1ncc(Cl)s1` here?
Its CC50 is 2.3 µM (active).

For `Cc1cn(CCN2CCN(c3ccccc3-c3cc(C#N)cc(C(=O)NCCCN4CCCC4)c3)CC2)c2ccccc12`, which CC50 is on record?
Its CC50 is 1.4 µM (active).

For `Cc1ccc(NC(=O)Nc2ccc3c(c2)N(S(C)(=O)=O)CC3)cc1F`, which CC50 is on record?
The CC50 was 3.6 µM (inactive).

For `NC(=O)c1cnc(NCCc2ccc(O)c(Cl)c2)nc1NCc1ccccc1`, which CC50 is on record?
Its CC50 is 4.2 µM (active).

Which CC50 does the source give for `CCN(Cc1cc(Nc2nc(C)cn3c(-c4cn[nH]c4)cnc23)sn1)C(C)(C)CO` here?
The CC50 was 1.8 µM (active).

For `FC(F)(F)c1cccc(Nc2nc(-c3ccccc3)nc3ncccc23)c1`, which CC50 is on record?
Its CC50 is 41.6 µM (inactive).

Which CC50 does the source give for `Cn1cncc1C(=O)N1CCCN(Cc2ccccc2)c2ccccc21` here?
Its CC50 is 11.5 µM (inactive).

For `O=C(CN1C(=O)COc2ccc(Cl)cc21)N1CCC(c2c[nH]c3ncccc23)CC1`, which CC50 is on record?
The CC50 was 8.8 µM (active).

For `CCCNC(=O)N1CC(Oc2ccc(-c3noc(-c4cccnc4)n3)cc2)C1`, which CC50 is on record?
Its CC50 is 6 µM (active).

For `CN1CCCN(C(=O)Nc2ccc3c4c(cccc24)CC3)CC1`, which CC50 is on record?
The CC50 was 9.4 µM (active).

For `CCCCn1c(=O)c(C(=O)Nc2ccc(O)cc2)c(O)c2ccccc21`, which CC50 is on record?
Its CC50 is 23 µM (inactive).

With `Cc1nc2c(=O)n(C)c(=O)nc-2n(C)n1` as the compound, how does the CC50 read?
The CC50 was 0.7 µM (active).

For `CN(C)CCNc1oc(-c2ccc(S(=O)(=O)N3CCCCCC3)cc2)nc1C#N`, which CC50 is on record?
Its CC50 is 18 µM (inactive).

Which CC50 does the source give for `CCCN(CCC)C(=O)C1=Cc2ccc(-c3ccc(C(=O)N4CCCC4)cc3)cc2N=C(N)C1` [MOTOLIMOD] here?
Its CC50 is 11.3 µM (active).

With `O=C1Nc2cc(Br)ccc2/C1=C1/Nc2ccccc2/C1=N\O` [6BIO] as the compound, how does the CC50 read?
Its CC50 is 26.5 µM (inactive).

For `COc1ccc(-c2nc(N3CCOCC3)c3sc(CN(C)c4ncc(C(=O)NO)cn4)cc3n2)cn1` [FIMEPINOSTAT], which CC50 is on record?
The CC50 was < 0.1 µM (active).

With `N#Cc1cc(NC[C@H](O)c2ccco2)nc2ccc(Cl)cc12` as the compound, how does the CC50 read?
Its CC50 is 1.3 µM (active).

For `COc1ccc(C(=O)N2CCCN(CCc3nc4ccccc4n3C)CC2)cc1`, which CC50 is on record?
Its CC50 is 11.3 µM (inactive).

For `CCS(=O)(=O)N1CCc2ccc(NC(=O)Nc3cccc(C)c3)cc21`, which CC50 is on record?
The CC50 was 2.2 µM (active).

With `Cc1cc2c(cc1S(=O)(=O)Nc1cccc(F)c1)OCC(=O)N2` as the compound, how does the CC50 read?
The CC50 was 28.3 µM (inactive).

Which CC50 does the source give for `CN(c1ccc(-c2csc(NC(=O)CCc3ccco3)n2)cc1)S(C)(=O)=O` here?
Its CC50 is 6 µM (active).

For `COc1ccc(C)cc1NC(=O)N1CCC(n2cnc3cc(F)ccc3c2=O)CC1`, which CC50 is on record?
Its CC50 is 9.9 µM (active).

With `Cc1ccc(-c2cc3c(=O)n(CC#N)ccn3n2)cc1` as the compound, how does the CC50 read?
The CC50 was 0.3 µM (active).

Which CC50 does the source give for `CS(=O)(=O)N1CCN(Cc2cc3nc(-c4cccc5[nH]ncc45)nc(N4CCOCC4)c3s2)CC1` [PICTILISIB] here?
The CC50 was 0.9 µM (active).

With `O=C(NCc1ccc(-n2ccnc2)nc1)c1ccnc(O[C@H]2CCOC2)c1` as the compound, how does the CC50 read?
Its CC50 is 8.9 µM (active).

With `COc1ccc2cc(CN3CCC(n4ccnc4)CC3)ccc2c1` as the compound, how does the CC50 read?
Its CC50 is 11.5 µM (active).

Which CC50 does the source give for `COc1ccc(Cl)cc1CNCC1CCN(C[C@H](C)O)CC1` here?
The CC50 was 10.2 µM (active).

For `COc1ccc(-c2cc3c4nn(CC(=O)Nc5ccccc5)c(=O)n4ccn3n2)cc1`, which CC50 is on record?
The CC50 was 50 µM (inactive).

For `O=C(NCC(F)(F)CO)c1ccc2noc(-c3ccccc3)c2c1`, which CC50 is on record?
The CC50 was 7.2 µM (active).

With `CNC(=O)c1c(N)sc2c1-c1ccccc1C2` as the compound, how does the CC50 read?
The CC50 was 19.3 µM (inactive).

With `COc1cc(C(=O)Nn2cnc3ccccc32)cc(Cl)c1OCC(N)=O` as the compound, how does the CC50 read?
The CC50 was 8.3 µM (inactive).

With `Cc1ccc(F)c(C(=O)N2CCC(Oc3ccncc3C)CC2)c1` as the compound, how does the CC50 read?
Its CC50 is 11.2 µM (active).

Which CC50 does the source give for `CSc1ccc2c(c1)C(N1CCN(C)CC1)Cc1ccccc1S2` (centres undefined) [METITEPINE] here?
Its CC50 is 4.9 µM (active).

Which CC50 does the source give for `COc1ccccc1C(=O)Cc1nc2ccccc2o1` here?
Its CC50 is 8 µM (inactive).

Which CC50 does the source give for `COc1cc2c(N3CCN(C(=O)Nc4ccc(OC(C)C)cc4)CC3)ccnc2cc1OCCCN1CCCCC1` here?
Its CC50 is 7.4 µM (active).

From ChEMBL document CHEMBL5303711, “ECBD screening data for assay EOS300108” (2023)
